Experimental findings from patent US20240287042A1, “NOVEL COMPOUND HAVING INHIBITORY ACTIVITY AGAINST PENDRIN, AND PHARMACEUTICAL USES THEREOF” (UIF (University Industry Foundation), Yonsei University, priority 2021, published 2024) are described below.

Assay [1] concerns the target T1, human wild-type (WT)-SLC26A3 (Homo sapiens, UniProt P40879).
T1 construct: expressed in transfected cells
T1 sequence (P40879 1-764): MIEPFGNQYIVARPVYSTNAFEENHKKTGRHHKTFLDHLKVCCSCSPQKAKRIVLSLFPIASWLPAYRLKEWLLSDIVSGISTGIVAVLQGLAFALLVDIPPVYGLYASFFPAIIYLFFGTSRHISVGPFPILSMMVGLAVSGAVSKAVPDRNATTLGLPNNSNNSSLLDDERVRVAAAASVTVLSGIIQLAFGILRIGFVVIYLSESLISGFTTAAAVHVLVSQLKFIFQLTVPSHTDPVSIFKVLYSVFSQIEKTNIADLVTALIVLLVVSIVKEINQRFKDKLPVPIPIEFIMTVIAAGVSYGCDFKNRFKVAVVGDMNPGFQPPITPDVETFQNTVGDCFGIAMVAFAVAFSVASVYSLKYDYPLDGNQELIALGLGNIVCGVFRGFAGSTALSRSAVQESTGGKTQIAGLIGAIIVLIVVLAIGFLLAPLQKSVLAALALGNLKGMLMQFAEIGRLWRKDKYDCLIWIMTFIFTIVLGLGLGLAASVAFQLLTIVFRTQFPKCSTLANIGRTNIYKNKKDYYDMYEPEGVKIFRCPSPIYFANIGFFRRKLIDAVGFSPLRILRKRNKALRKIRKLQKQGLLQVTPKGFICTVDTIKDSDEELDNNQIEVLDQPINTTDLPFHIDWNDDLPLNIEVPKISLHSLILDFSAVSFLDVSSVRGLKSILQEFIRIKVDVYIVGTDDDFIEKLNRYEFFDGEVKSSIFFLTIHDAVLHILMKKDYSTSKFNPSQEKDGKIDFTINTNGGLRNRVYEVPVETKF
Kind of assay: SLC26A3 Cl−/I− exchange activity, YFP fluorescence in LN-215 cells. Format: cell-based. The following applies: for IC50: LN-215-YFP cells, FIG. 2, read-out: IC50 of Cl−/I− anion exchange by SLC26A3. The method, then: LN-215 cells were cultured in DMEM medium containing 10% fetal bovine serum (FBS), 100 units/ml of penicillin and 100 μg/ml streptomycin. LN-215 cells were stably transfected with pcDNA3.1 encoding the halide sensor YFP-H148Q/I152L/F46L and human wild-type (WT)-SLC26A3.
LN-215 cells expressing human WT SLC26A3 and YFP-F46L/H148Q/I152L were plated in 96-well microplates at a density of 2×10^4 cells per well, and cultured for 48 hours. Each well of the cell cultured 96-well plate was washed 2 times with 200 μL of PBS, and filled with 50 μL of HEPES buffered solution (140 mM NaCl, 5 mM KCl, 1 mM MgCl2, 1 mM CaCl2), 10 mM glucose and 10 mM HEPES (pH 7.4)). Test compounds (1 μL) were added to a final concentration of 100 μM. After culturing at 37° C. for 10 minutes, the 96-well plate was located on the FLUOstar Omega Microplate Reader (BMG Labtech, Ortenberg, Germany) for a fluorescence assay. Fluorescence was recorded continuously (400 ms per point) for 1 second (baseline), whereby each well was assayed individually for SLC26A3-mediated I-influx. Then, 50 μL of NaI-substituted HEPES buffered solution (replacing NaCl with NaI) was added using a liquid injector at 1 second, and YFP fluorescence was recorded for 5 seconds. The initial iodide influx rate was determined from the initial slope of fluorescence by nonlinear regression, after the injection of iodide.
In the case of SLC26A3 and SLC26A6, each transporter protein and halide sensitive YFP were expressed in LN-215 cells to measure the activity of the transporter protein.
Other details were carried out in the same manner as Example 5.

In the next assay the target is T2, human WT CFTR (Homo sapiens, UniProt P13569).
T2 construct: expressed in transfected cells
Kind of assay: CFTR I− transport activity, YFP fluorescence, forskolin-activated. Format: cell-based. The following applies: for Effect on CFTR activity: 100 μM. The method, then:
Chinese hamster ovary (CHO)-K1 cells or LN-215 cells were cultured in DMEM medium containing 10% fetal bovine serum (FBS), 100 units/ml of penicillin and 100 μg/ml streptomycin. CHO-K1 cells or LN-215 cells were stably transfected with pcDNA3.1 encoding the halide sensor YFP-H148Q/I152L/F46L and human wild-type (WT)-SLC26A9. Fisher rat thyroid (FRT) cells stably transfected with YFP-H148Q/I152L/F46L and human wild type (WT)-CFTR or human wild type (WT)-ANO1 were cultured in DMEM/F-12 medium containing 10% fetal bovine serum (FBS), 100 units/ml of penicillin, and 100 μg/ml of streptomycin.
LN-215 cells expressing human WT SLC26A9 and YFP-F46L/H148Q/I152L, and FRT cells expressing human WT CFTR or ANO1 and YFP-F46L/H148Q/I152L were plated in 96-well microplates at a density of 2×10^4 cells per well, and cultured for 48 hours. […] After culturing at 37° C. for 10 minutes, the 96-well plate was located on the FLUOstar Omega Microplate Reader (BMG Labtech, Ortenberg, Germany) for a fluorescence assay. For assay of the activity of […], fluorescence was recorded continuously (400 ms per point) for 1 second (baseline), whereby each well was assayed individually for SLC26A9-mediated I-influx. Then, 50 μL of NaI-substituted HEPES buffered solution (replacing NaCl with NaI) was added using a liquid injector at 1 second, and YFP fluorescence was recorded for 6 seconds. For assay of the activity of CFTR, fluorescence was recorded continuously (400 ms per point) for 2 seconds (baseline), whereby each well was assayed individually for CFTR-mediated I^− influx. Then, 50 μL of NaI-substituted HEPES buffered solution (replacing NaCl with NaI) was added using a liquid injector at 2 second, and YFP fluorescence was recorded for 8 seconds. For assay of the activity of ANO1, fluorescence was recorded continuously (400 ms per point) for 1 second (baseline), whereby each well was assayed individually for ANO1-mediated I^− influx. […] The initial iodide influx rate was determined from the initial slope of fluorescence by nonlinear regression, after the injection of iodide. […]

T2 sequence (P13569 whole entry): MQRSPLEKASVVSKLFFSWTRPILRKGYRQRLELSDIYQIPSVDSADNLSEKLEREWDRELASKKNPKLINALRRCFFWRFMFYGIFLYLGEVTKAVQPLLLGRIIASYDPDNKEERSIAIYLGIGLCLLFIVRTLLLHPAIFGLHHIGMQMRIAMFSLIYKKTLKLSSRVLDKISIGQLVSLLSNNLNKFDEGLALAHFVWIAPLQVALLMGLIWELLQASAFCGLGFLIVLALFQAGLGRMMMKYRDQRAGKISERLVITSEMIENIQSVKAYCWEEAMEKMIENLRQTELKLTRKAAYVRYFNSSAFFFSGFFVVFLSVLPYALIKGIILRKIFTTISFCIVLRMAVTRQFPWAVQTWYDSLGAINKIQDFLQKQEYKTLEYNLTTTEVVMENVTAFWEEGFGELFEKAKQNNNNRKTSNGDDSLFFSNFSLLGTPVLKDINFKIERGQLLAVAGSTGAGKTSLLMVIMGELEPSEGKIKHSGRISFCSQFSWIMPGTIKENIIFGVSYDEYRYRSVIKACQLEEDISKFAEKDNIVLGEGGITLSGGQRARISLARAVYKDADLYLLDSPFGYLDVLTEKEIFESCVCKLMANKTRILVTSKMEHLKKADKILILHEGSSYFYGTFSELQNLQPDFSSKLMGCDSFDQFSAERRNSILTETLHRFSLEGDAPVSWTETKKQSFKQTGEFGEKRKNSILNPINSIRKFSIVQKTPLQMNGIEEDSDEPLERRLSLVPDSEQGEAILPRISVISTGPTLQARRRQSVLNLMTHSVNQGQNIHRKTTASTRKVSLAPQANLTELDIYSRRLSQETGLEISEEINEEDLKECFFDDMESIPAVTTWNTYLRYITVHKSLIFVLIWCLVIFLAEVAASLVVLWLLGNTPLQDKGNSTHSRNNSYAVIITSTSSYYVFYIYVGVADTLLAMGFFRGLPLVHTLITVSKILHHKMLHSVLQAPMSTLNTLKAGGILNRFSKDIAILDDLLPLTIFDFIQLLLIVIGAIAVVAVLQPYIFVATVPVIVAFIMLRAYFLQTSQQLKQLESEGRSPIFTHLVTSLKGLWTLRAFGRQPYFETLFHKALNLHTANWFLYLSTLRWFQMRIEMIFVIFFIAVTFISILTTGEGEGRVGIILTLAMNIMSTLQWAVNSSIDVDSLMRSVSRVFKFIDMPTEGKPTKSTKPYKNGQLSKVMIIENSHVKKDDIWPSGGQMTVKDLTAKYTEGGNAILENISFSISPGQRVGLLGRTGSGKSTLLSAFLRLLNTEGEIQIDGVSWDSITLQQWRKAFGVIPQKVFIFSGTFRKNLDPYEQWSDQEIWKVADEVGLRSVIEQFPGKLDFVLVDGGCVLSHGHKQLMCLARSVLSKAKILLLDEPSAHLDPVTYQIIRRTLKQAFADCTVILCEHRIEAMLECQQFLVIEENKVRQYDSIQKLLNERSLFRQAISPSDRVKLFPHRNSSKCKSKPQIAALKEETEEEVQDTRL

Take `Cc1ccc2[nH]c(C(=O)O)c(CC(=O)N3CCN(c4c(C)cccc4Cl)CC3)c2c1` [YPI-A4948, 3-(2-(4-(2-Chloro-6-methylphenyl)piperazin-1-yl)-2-oxoethyl)-5-methyl-1H-indole-2-carboxylic acid]: the “Selectivity for pendrin than SLC26A3” value in assay [1] is “about 18 times”. Further, the IC50 in assay [1] was 11.4 µM. For the same compound, the “Effect on CFTR activity” value is given as “almost no effect” at human WT CFTR (Example 14, CHO-K1 cells, FIG. 16) and “almost no effect” on human WT CFTR (FRT-YFP cells, FIG. 3).
The term inhibition denotes the share of the control response that was lost under treatment. Higher therefore signals a response far below the control. On to `Cc1ccc(C)c(N2CCN(C(=O)Cc3c(C(=O)O)[nH]c4ccc(Cl)cc34)CC2)c1` [YPI-H05, 5-chloro-3-(2-(4-(2,5-dimethylphenyl)piperazin-1-yl-)-2-oxoethyl)-1H-indole-2-carboxylic acid], for which the IC50 in assay [1] was determined as 3.8 µM. At human WT CFTR (FRT-YFP cells, FIG. 3), this compound had an inhibition at 100 µM of about 50%.
